# Assay results as given in ChEMBL document CHEMBL1201862, “PubChem BioAssay data set” (2004).
#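 Where inhibition never reached the appropriate level, the endpoint shown equals the highest concentration tested. Otherwise, values were interpolated linearly from a five-concentration, 48-hour dose response in 96-well plates. GI50 = concentration required for 50% inhibition of growth.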 The source made the active and inactive calls. Rule as the data show it: active = GI50 up to about 1.1 µM and inactive = higher.
# What was measured:
# Test in all cases: growth of human tumour cells (NCI), 48 h
# A549 = tested on: A549
# COLO 205 = tested on: COLO 205
# DU-145 = tested on: DU-145
# EKVX = tested on: EKVX
# Hs-578T = tested on: Hs-578T
# LOX IMVI = tested on: LOX IMVI
# MDA-MB-231 = tested on: MDA-MB-231
# MDA-N = tested on: MDA-N
# MOLT-4 = tested on: MOLT-4
# NCI-H226 = tested on: NCI-H226
# NCI/ADR-RES = tested on: NCI/ADR-RES
# PC-3 = tested on: PC-3
# SF-268 = tested on: SF-268
# SK-MEL-5 = tested on: SK-MEL-5
# SR = tested on: SR
# T47D = tested on: T47D
# TK-10 = tested on: TK-10
Structure (SMILES),GI50 (A549),GI50 (COLO 205),GI50 (DU-145),GI50 (EKVX),GI50 (Hs-578T),GI50 (LOX IMVI),GI50 (MDA-MB-231),GI50 (MDA-N),GI50 (MOLT-4),GI50 (NCI-H226),GI50 (NCI/ADR-RES),GI50 (PC-3),GI50 (SF-268),GI50 (SK-MEL-5),GI50 (SR),GI50 (T47D),GI50 (TK-10)
CCCCCCCCCCCCCCC(O)C[N+](C)(CCO)CCO (stereo not given),10.2 µM (inactive),1.72 µM (inactive),11 µM (inactive),17.7 µM (inactive),2.17 µM (inactive),1.48 µM (inactive),1.14 µM (inactive),5.86 µM (inactive),1.91 µM (inactive),2.04 µM (inactive),20.3 µM (inactive),1.72 µM (inactive),1.89 µM (inactive),4.06 µM (inactive),1.92 µM (inactive),8.07 µM (inactive),1.39 µM (inactive)
c1ccc(COc2ncccc2C2SCCCS2)cc1,> 100 µM (inactive),> 100 µM (inactive),> 100 µM (inactive),> 100 µM (inactive),> 100 µM (inactive),82.4 µM (inactive),> 100 µM (inactive),> 100 µM (inactive),–,> 100 µM (inactive),> 100 µM (inactive),> 100 µM (inactive),> 100 µM (inactive),> 100 µM (inactive),70 µM (inactive),32.9 µM (inactive),> 100 µM (inactive)
Cc1ccc(O)c(C2=CC(c3cccc(Br)c3)SC(=N)N2)c1 (stereo not given),25.8 µM (inactive),17.5 µM (inactive),34.5 µM (inactive),21 µM (inactive),20.4 µM (inactive),18.5 µM (inactive),25.8 µM (inactive),19.7 µM (inactive),18.9 µM (inactive),26.9 µM (inactive),27.9 µM (inactive),26.1 µM (inactive),28.8 µM (inactive),17 µM (inactive),17.1 µM (inactive),26.5 µM (inactive),19.6 µM (inactive)
Cc1cccc(Nc2nc3ccccc3nc2NS(=O)(=O)c2ccccc2)c1,14.1 µM (inactive),16.1 µM (inactive),44.3 µM (inactive),30.5 µM (inactive),33 µM (inactive),45.4 µM (inactive),39.5 µM (inactive),42.9 µM (inactive),12.6 µM (inactive),70 µM (inactive),20 µM (inactive),14.4 µM (inactive),44.3 µM (inactive),19.4 µM (inactive),25.6 µM (inactive),18.5 µM (inactive),22.9 µM (inactive)
Fc1ccc2c(c1)nc1n2C(c2c(Cl)cccc2Cl)SC1 (stereo not given),14.9 µM (inactive),16.7 µM (inactive),16.4 µM (inactive),–,18.3 µM (inactive),15 µM (inactive),15.3 µM (inactive),12.1 µM (inactive),8.02 µM (inactive),17.3 µM (inactive),13.4 µM (inactive),14.7 µM (inactive),15.8 µM (inactive),8.71 µM (inactive),3.94 µM (inactive),14.2 µM (inactive),17.5 µM (inactive)
Cc1ccccc1NC(=O)O/N=C(\Cl)C(C)C,19.1 µM (inactive),1.75 µM (inactive),17.2 µM (inactive),2.29 µM (inactive),22.3 µM (inactive),1.55 µM (inactive),17.7 µM (inactive),2.72 µM (inactive),2.74 µM (inactive),16 µM (inactive),16.5 µM (inactive),17.1 µM (inactive),19.3 µM (inactive),11 µM (inactive),2.85 µM (inactive),3.79 µM (inactive),3.94 µM (inactive)
Cc1nc2c(cc1OCc1ccccc1)C(=O)C1=C(C2=O)C2OC(=O)CC2OC1(C)C (stereo not given),6.44 µM (inactive),0.326 µM (active),1.71 µM (inactive),1.55 µM (inactive),0.169 µM (active),0.215 µM (active),0.43 µM (active),0.404 µM (active),0.358 µM (active),1.09 µM (active),3.14 µM (inactive),0.56 µM (active),0.475 µM (active),1.18 µM (inactive),–,0.288 µM (active),1.43 µM (inactive)
CCCCOC(=O)C(NC(C(=O)OCCCC)c1cc(C(C)(C)C)c(O)c(C(C)(C)C)c1)c1cc(C(C)(C)C)c(O)c(C(C)(C)C)c1 (stereo not given),> 100 µM (inactive),> 100 µM (inactive),> 100 µM (inactive),> 100 µM (inactive),> 100 µM (inactive),> 100 µM (inactive),> 100 µM (inactive),> 100 µM (inactive),75 µM (inactive),> 100 µM (inactive),> 100 µM (inactive),> 100 µM (inactive),> 100 µM (inactive),> 100 µM (inactive),–,> 100 µM (inactive),> 100 µM (inactive)
NCCCN(CCCN)CCc1cn(C(=O)c2ccccc2)cn1,9.46 µM (inactive),3.14 µM (inactive),4.32 µM (inactive),7.21 µM (inactive),11.4 µM (inactive),11.6 µM (inactive),14.2 µM (inactive),9.1 µM (inactive),2.19 µM (inactive),9.64 µM (inactive),14.4 µM (inactive),8.63 µM (inactive),7.8 µM (inactive),7 µM (inactive),2.24 µM (inactive),4.85 µM (inactive),5.33 µM (inactive)
CCOc1cc(NC(C)=O)ccc1C(=O)NN1C(=O)C(Cl)C1c1ccco1 (stereo not given),18.7 µM (inactive),17.2 µM (inactive),17.3 µM (inactive),17.9 µM (inactive),21.8 µM (inactive),3.99 µM (inactive),16.6 µM (inactive),14.4 µM (inactive),7.01 µM (inactive),18.5 µM (inactive),33.7 µM (inactive),17.9 µM (inactive),16.1 µM (inactive),13.3 µM (inactive),13.9 µM (inactive),16.7 µM (inactive),17.4 µM (inactive)
NNC(=O)C(O)C(O)C(O)CO (stereo not given),> 100 µM (inactive),> 100 µM (inactive),> 100 µM (inactive),> 100 µM (inactive),> 100 µM (inactive),88.9 µM (inactive),> 100 µM (inactive),> 100 µM (inactive),–,> 100 µM (inactive),> 100 µM (inactive),> 100 µM (inactive),> 100 µM (inactive),> 100 µM (inactive),67.8 µM (inactive),> 100 µM (inactive),> 100 µM (inactive)
Cc1cc(C)c2c(-c3ccccc3)cc(=O)[nH]c2c1,> 100 µM (inactive),> 100 µM (inactive),> 100 µM (inactive),> 100 µM (inactive),> 100 µM (inactive),> 100 µM (inactive),> 100 µM (inactive),> 100 µM (inactive),> 100 µM (inactive),> 100 µM (inactive),> 100 µM (inactive),> 100 µM (inactive),> 100 µM (inactive),> 100 µM (inactive),–,> 100 µM (inactive),> 100 µM (inactive)
CNc1cc2oc(=O)cc(C)c2cc1C,> 100 µM (inactive),> 100 µM (inactive),> 100 µM (inactive),59.6 µM (inactive),79.1 µM (inactive),> 100 µM (inactive),> 100 µM (inactive),> 100 µM (inactive),> 100 µM (inactive),> 100 µM (inactive),> 100 µM (inactive),> 100 µM (inactive),> 100 µM (inactive),30.1 µM (inactive),36.4 µM (inactive),> 100 µM (inactive),86.3 µM (inactive)
COc1cc(OCc2ccc3nc(-c4ccccc4)c(Cl)nc3c2)cc(OC)c1OC,> 100 µM (inactive),> 100 µM (inactive),> 100 µM (inactive),59.2 µM (inactive),39.6 µM (inactive),> 100 µM (inactive),39.1 µM (inactive),> 100 µM (inactive),> 100 µM (inactive),–,58.1 µM (inactive),> 100 µM (inactive),> 100 µM (inactive),20.5 µM (inactive),> 100 µM (inactive),93.8 µM (inactive),19.4 µM (inactive)
CSCCC(C(=O)O)N(C)C (stereo not given),> 100 µM (inactive),> 100 µM (inactive),> 100 µM (inactive),> 100 µM (inactive),> 100 µM (inactive),> 100 µM (inactive),> 100 µM (inactive),> 100 µM (inactive),–,> 100 µM (inactive),> 100 µM (inactive),> 100 µM (inactive),> 100 µM (inactive),> 100 µM (inactive),> 100 µM (inactive),> 100 µM (inactive),> 100 µM (inactive)
CC(C)N(C(C)C)S(=O)(=O)C[C@]12CC[C@H](CC13OCC(CS(=O)(=O)c1ccccc1)O3)C2(C)C (stereo not given in full),36.6 µM (inactive),17.6 µM (inactive),74.6 µM (inactive),39.3 µM (inactive),94.4 µM (inactive),64.6 µM (inactive),> 100 µM (inactive),51.4 µM (inactive),6.98 µM (inactive),34.1 µM (inactive),41.9 µM (inactive),35.3 µM (inactive),59.2 µM (inactive),29.4 µM (inactive),–,27.1 µM (inactive),44.9 µM (inactive)
O=C1c2c(Br)sc(Br)c2[C@@H](NC(=O)C(F)(F)F)C1Br (stereo not given in full),17.1 µM (inactive),2.01 µM (inactive),6.71 µM (inactive),3.57 µM (inactive),7.94 µM (inactive),1.57 µM (inactive),2.79 µM (inactive),2.87 µM (inactive),2.2 µM (inactive),5.53 µM (inactive),3.32 µM (inactive),4.3 µM (inactive),3.71 µM (inactive),2.8 µM (inactive),2.07 µM (inactive),4.11 µM (inactive),16.8 µM (inactive)
